Tests used:
HSV-1 KOS = assay: Plaque reduction assay, HSV-1 KOS; format: cell-based; conditions: Table 1, plaque reduction, Vero cells; read-out: IC50 (uM), HSV-1 KOS
Procedure: (§1) Antiviral activity of compounds against herpesviruses such as HSV-1, HSV-2, or HCMV can be measured using plaque reduction assays. 0.1 ml of media containing approximately 50 PFU of virus is added to each well of a 24-well cell culture dish containing a confluent monolayer of cells (Vero cells for HSV-1 and HSV-2, HFF cells for HCMV). Compounds are dissolved in 100% DMSO and diluted in 100% DMSO as 200× stocks of the desired final drug concentration. Typically 5-6 two-fold dilutions are prepared for each compound. Dilutions of compounds are then added to media containing 0.8% CMC resulting in a final 1× drug concentration. After the virus-infected cells have incubated for 1 h at 37° C., the virus innoculum is removed and 1 ml of media containing 0.8% CMC and the various concentrations of compound is added to each well of the dish. The dish is incubated at 37° C. for approximately 2-3 days (HSV-1 and HSV-2) or 6-9 days (HCMV) to allow sufficient growth of virus to form plaques in the cell monolayer. Plaques can be observed and counted microscopically or by staining the cells with 0.1% crystal violet in 20% ethanol. […] Antiviral activity of a compound is expressed as the concentration of compound predicted to reduce the number of plaques in a well by 50% (IC50). The IC50 values are calculated by plotting the per cent inhibition vs. concentration of compound using EXCEL software for linear regression.
(§2) A panel of viruses consisting of four strains of HSV-1 (KOS, F, DJL, Patton) and three strains of HSV-2 (MS, 35D, 186) are tested in a plaque reduction assay against four different 4-oxo-DHQ compounds (#1, 2, 4, 5 as shown in FIG. 1), and one 4-oxo-DHTP compound (#3 as shown in FIG. 1) and against Acyclovir. The six drugs inhibited replication of the seven virus strains with IC50 values ranging from 2-10 μM (Table 1). In order to select for 4-oxo-DHQ resistant mutants, HSV-1 strains KOS, F, and DJL along with HSV-2 strains 186 and MS are serially passaged in the presence of 20 uM compound 1. Following the seventh passage, 4-oxo-DHQ resistant virus from each strain are plaque purified three times and high-titer stocks are made.

HSV-2 MS = assay: Plaque reduction assay, HSV-2 MS; format: cell-based; conditions: Table 1, plaque reduction, Vero cells; read-out: IC50 (uM), HSV-2 MS
Procedure: as §1, §2

HSV-1 F-M1 (V823A) = assay: Plaque reduction assay, 4-oxo-DHQ resistant HSV-1 F-M1; format: cell-based; conditions: Table 2, mutant V823A
Procedure: Antiviral activity of compounds against herpesviruses such as HSV-1, HSV-2, or HCMV can be measured using plaque reduction assays. 0.1 ml of media containing approximately 50 PFU of virus is added to each well of a 24-well cell culture dish containing a confluent monolayer of cells (Vero cells for HSV-1 and HSV-2, HFF cells for HCMV). Compounds are dissolved in 100% DMSO and diluted in 100% DMSO as 200× stocks of the desired final drug concentration. Typically 5-6 two-fold dilutions are prepared for each compound. Dilutions of compounds are then added to media containing 0.8% CMC resulting in a final 1× drug concentration. After the virus-infected cells have incubated for 1 h at 37° C., the virus innoculum is removed and 1 ml of media containing 0.8% CMC and the various concentrations of compound is added to each well of the dish. The dish is incubated at 37° C. for approximately 2-3 days (HSV-1 and HSV-2) or 6-9 days (HCMV) to allow sufficient growth of virus to form plaques in the cell monolayer. Plaques can be observed and counted microscopically or by staining the cells with 0.1% crystal violet in 20% ethanol. […] The IC50 values are calculated by plotting the per cent inhibition vs. concentration of compound using EXCEL software for linear regression. […]

HCMV V823A polymerase = molecular target: T1, HCMV V823A polymerase (Human cytomegalovirus, UniProt P08546, V823A); assay: In vitro polymerase assay, mutant HCMV polymerase V823A; format: biochemical
T1 construct: made in house
T1 sequence (P08546 1-1242 V823A): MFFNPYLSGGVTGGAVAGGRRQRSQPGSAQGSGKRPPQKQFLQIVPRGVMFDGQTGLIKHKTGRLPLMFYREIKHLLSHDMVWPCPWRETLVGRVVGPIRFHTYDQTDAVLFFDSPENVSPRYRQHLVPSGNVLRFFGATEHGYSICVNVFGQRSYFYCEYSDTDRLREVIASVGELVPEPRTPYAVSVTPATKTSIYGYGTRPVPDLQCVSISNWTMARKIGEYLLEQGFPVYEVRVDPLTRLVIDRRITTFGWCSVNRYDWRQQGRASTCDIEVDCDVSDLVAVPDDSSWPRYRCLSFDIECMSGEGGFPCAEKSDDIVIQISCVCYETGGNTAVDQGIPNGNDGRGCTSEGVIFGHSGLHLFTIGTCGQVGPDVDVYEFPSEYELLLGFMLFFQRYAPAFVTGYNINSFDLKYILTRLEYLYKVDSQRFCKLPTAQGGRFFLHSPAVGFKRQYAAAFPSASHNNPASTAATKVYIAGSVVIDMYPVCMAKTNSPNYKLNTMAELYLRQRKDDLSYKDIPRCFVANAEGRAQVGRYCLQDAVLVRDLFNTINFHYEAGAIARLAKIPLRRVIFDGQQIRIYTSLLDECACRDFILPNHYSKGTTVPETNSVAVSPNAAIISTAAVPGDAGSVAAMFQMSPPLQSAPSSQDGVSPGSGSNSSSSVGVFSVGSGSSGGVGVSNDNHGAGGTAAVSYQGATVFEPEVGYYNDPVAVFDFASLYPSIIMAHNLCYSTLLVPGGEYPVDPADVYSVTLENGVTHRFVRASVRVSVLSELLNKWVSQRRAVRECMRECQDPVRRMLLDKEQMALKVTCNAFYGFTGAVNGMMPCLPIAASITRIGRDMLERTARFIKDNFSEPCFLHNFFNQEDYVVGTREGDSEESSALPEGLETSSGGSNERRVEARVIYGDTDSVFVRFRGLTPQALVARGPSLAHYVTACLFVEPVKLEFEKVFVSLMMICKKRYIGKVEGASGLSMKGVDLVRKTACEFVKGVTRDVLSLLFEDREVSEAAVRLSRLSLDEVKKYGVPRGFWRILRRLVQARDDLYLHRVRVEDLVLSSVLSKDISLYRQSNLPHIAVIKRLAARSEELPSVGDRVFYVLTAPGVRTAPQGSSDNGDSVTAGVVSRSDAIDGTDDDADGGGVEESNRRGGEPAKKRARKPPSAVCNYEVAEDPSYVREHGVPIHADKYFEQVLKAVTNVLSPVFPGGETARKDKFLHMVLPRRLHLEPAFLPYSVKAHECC
Procedure: In order to select for a 4-oxo-DHQ HCMV resistant mutant, virus (strain AD169) is serially passaged in the presence of 20 uM a 4-oxo-DHQ. […] In order to determine if both valines need to be changed in order to confer resistance to the 4-oxo-DHQ's, in vitro polymerase assays are done using mutant HCMV polymerases containing either V823A or V823A plus V824L (Table 3).

`Cn1cc(C(=O)NCc2ccc(Cl)cc2)c(=O)c2cc(/C=C\CO)cc(F)c21` [Compound 1] was tested, and the IC50 (HSV-1 KOS) was 2 µM, the IC50 (HSV-2 MS) was 2 µM and the IC50 (HSV-1 F-M1 (V823A)) was over 20 µM. For the same compound, the IC50 (HCMV V823A polymerase; Table 3) was 17.2 µM and the “increase in resistance, HCMV V823A polymerase” value (HCMV V823A polymerase; relative to wild type polymerase) was “*Generation of the valine to alanine at amino acid 823 of HCMV results in a 3.5-fold increase in resistance”.

From patent US6682892B2, “Method for treating herpes viruses” (priority 2000, dated 2004)
